Five molecules from patent US8927530B2, “Therapeutic combination comprising a PLK1 inhibitor and an antineoplastic agent” (priority 2009, dated 2015) can be followed below.

The test system of data set [1] is HT29 human colon cancer tumors. As to conditions: for T-C: delay to reach 1 g tumor. On the procedure: Balb, Nu/Nu male mice, from Harlan (Italy), were maintained, in agreement with the European Communities Council Directive no.
(§1) Fragments of HT29 human colon cancer tumors were implanted subcutaneously. The treatment started when tumors were palpable. […] Tumor growth and body weight were measured every 3 days. Tumor growth was assessed by caliper. The two diameters were recorded and the tumor weight was calculated according to the following formula: length (mm)×width^2/2. […] This delay (T-C value) was defined as the difference of time (in days) required for the treatment group (T) and the control group (C) tumors to reach a predetermined size (1 g). Sinergy was identified when T-C of drug combination is >of addition of T-C value of single agents.
(§2) Toxicity was evaluated on the basis of body weigh reduction.

Data set [2] has as its system HT29 human colon cancer tumors. Kind of data set: In vivo activity of combination with bevacizumab, HT29 tumors implanted subcutaneously. The note with it: for T-C: delay to reach 1 g tumor.
The subject of data set [3] is AML-PS acute myeloid leukaemia cells. As to conditions: for Median Survival Time: Control 34. On the procedure: SCID female mice, from Harlan (Italy), were maintained, in agreement with the European Communities Council Directive no. […] 5×10^6 in 0.2 ml AML-PS acute myeloid leukaemia cells were injected intravenously in mice.
Cytarabine was administered by intraperitoneal route at the dose of 75 mg/kg on days 2, 3, 4, 5, 6, 14, 15, 16, 17, 18, 26, 27, 28, 29, 30, 38, 39, 40, 41 42. […] Body weight was measured every 3 days. The effect of the antitumor treatment was evaluated determining the Median Survival Time of treated animals respect to control group.

Data set [4] relates to HT29 human colon cancer tumors. As to conditions: for T-C: delay to reach 1 g tumor. On the procedure: as §1, with “Balb, Nu/Nu male mice, from Harlan (Italy), were maintained, in agreement with the European Communities Council Directive no. […] Fragments” for “Fragments”, “single agents, additivity is identified when T-C value of drug combination is equal to addition of T-C value of single” for “single”
as §2
The source holds these as a separate data set.

Setting [5] is: Compound of formula (I) 45 mg/kg oral, day 2, 3, 4, 6, 7, 8.
The mark [6] stands for this setting: male, Balb Nu/Nu, mouse, in vivo, po, 45 mg/kg.

Read-outs that look alike come from different tables or passages of the source.

Turning to `CCc1c2c(nc3ccc(OC(=O)N4CCC(N5CCCCC5)CC4)cc13)-c1cc3c(c(=O)n1C2)COC(=O)[C@]3(O)CC` [CPT11, reference compound], the “T-C” value in data set [1] (CPT11 45 mg/kg intravenous, days 1, 5, 9) is 12.3 days.

For `CN1CCN(c2ccc(OC(F)(F)F)c(Nc3ncc4c(n3)-c3c(c(C(N)=O)nn3CCO)CC4)c2)CC1` [Compound of formula (I)], the “T-C” value is listed as 10.3 days in data set [1] (setting [5]); 8.5 days in data set [2] (Compound of formula (I) 45 mg/kg oral, day 2, 3, 4, 6, 7, 8, 10, 11, 12); 16.8 days in data set [2] (Compound of formula (I) 60 mg/kg oral, day 2, 3, 4, 6, 7, 8, 10, 11, 12); 10.3 days in data set [4] (setting [5]). Also, the Toxicity is listed as 0/7 in data set [1] (setting [6]); 0/7 in data set [2] (setting [6]); 0/7 in data set [2] (male, Balb Nu/Nu, mouse, in vivo, po, 60 mg/kg); 0/7 in data set [3] (female, SCID, mouse, in vivo, po, 120 mg/kg); 0/7 in data set [4] (setting [6]). Moreover, the “Median Survival Time” value in data set [3] (Compound of formula (I) 120 mg/kg oral, day 2, 3, 14, 15, 26, 27, 38, 39) was found to be 49.5.

Regarding bevacizumab [reference compound], in data set [2] (Bevacizumab 20 mg/kg, intravenous route (footnote), days 1, 5, 9, 13, body weight reduction), the Toxicity was 0/7. Moreover, in data set [2] (Bevacizumab 20 mg/kg, intravenous route (footnote), days 1, 5, 9, 13), the “T-C” value came to 4.7 days.

Take `Nc1ccn([C@@H]2O[C@H](CO)[C@@H](O)[C@@H]2O)c(=O)n1` [Cytarabine, cytarabine, reference compound]: in data set [3] (cytarabine 75 mg/kg intraperitoneal, days 2-6, 14-18, 26-30, 38-42), the “Median Survival Time” value was found to be 66.5.

As for `O=c1[nH]cc(F)c(=O)[nH]1` [5FU, 5-fluorouracil, reference compound], the “T-C” value in data set [4] (5FU 50 mg/kg intravenous, days 1, 5, 9) is given as 11.4 days.
